# Experimental data published in patent US20240124503A1, “HETEROAROMATIC PHOSPHONIUM SALTS AND THEIR USE TREATING CANCER” (FLORATEK PHARMA S.A., priority 2021, published 2024).
# Like-named read-outs stand apart in the source and are kept apart here.
# Tests used:
# Format in all cases: cell-based
# CH-17-0091 = test: Cell viability, bile duct PDX CH-17-0091
# Procedure: (§1) PDX-derived cell cultures were obtained from tumors explanted from mice and isolated by mechanical and enzymatic dissociation. […] Cells were harvested and seeded in 96-wells plates at a density of 1.25 to 5×10^3 cells/well for cytotoxicity assays. Cells were incubated 48 h at 37° C. prior to addition of test molecules and vehicle (DMSO, 0.1%) at desired final concentrations. Cell viability was assessed before drugs' addition (To) and 5 days after test molecules addition by measuring ATP cell content using CellTiter-Glo® Luminescent Cell Viability Assay (Promega) according to the manufacturer's instructions. Luciferase activity was measured on a luminometer (PerkinElmer® EnVision™). Each concentration of compounds was tested in triplicate.
# (§2) Viability was calculated as a percentage of ATP value compared to vehicle treated controls.
# (§3) For PDX primary cell cultures, the tumour tissue was washed with PBS containing antibiotic-antimycotic and non-tumour tissue and necrotic tumour tissues were separated. The tumour tissue was transferred to a new dish and cut into 1˜2 mm^3 fragments, resuspended in RPMI-1640 medium and centrifuged at 1,200 rpm for 6 min at room temperature. The pelleted material was resuspended with 15 mL of Tumour Cell Digestion Solution and incubated at 37° C. for 1 hour with agitation. […]
# SF-268 = test: Cell viability assay, SF-268; settings: brain carcinoma cell line SF-268
# Procedure: (§4) Antitumor activity of the compounds and doxorubicin as a positive control was assessed by using the CellTiter-Blue Cell Viability Assay (Promega, #G8082) or CellTiter-Glow® Luminescent Cell Viability assay (Promega #G7572) according to the manufacturer's instructions. The compounds were tested at 5 or 6 concentrations in half-log increments (highest concentration 30 μM or 100 μM) in duplicate or triplicate well conditions.
# (§5) Tumor cells were grown at 37° C. in a humidified atmosphere with 5% CO2 in RPMI 1640 or DMEM medium, supplemented with 10% (v/v) fetal calf serum and 50 μg/ml gentamicin for up to 20 passages, and were passaged once or twice weekly. Cells were harvested using TrypLE or PBS buffer containing 1 mM EDTA, and the percentage of viable cells was determined using a CASY Model TI cell counter (OMNI Life Science). Cells were harvested from exponential phase cultures, counted and plated in 96 well flat-bottom microtiter plates at a cell density depending on the cell line's growth rate (4,000-20,000 cells/well depending on the cell line's growth rate, up to 60,000 for hematological cancer cell lines) in RPMI 1640 or DMEM medium supplemented with 10% (v/v) fetal calf serum and 50 μg/ml gentamicin (140 μl/well). […] Viability of cells was quantified by the CellTiter-Blue® cell viability assay (Promega G8081) or CellTiter-Glow® Luminescent Cell Viability assay (Promega #G7572). […]
# MCF-7 = test: Cell viability assay, MCF-7; settings: breast carcinoma cell line MCF-7
# Procedure: as §4, §5
# MDA-MB-468 = test: Cell viability assay, MDA-MB-468; settings: breast carcinoma cell line MDA-MB-468
# Procedure: as §4, §5
# HT-29 = test: Cell viability assay, HT-29; settings: colon carcinoma cell line HT-29
# Procedure: as §4, §5
# CO-04-0722 = test: Cell viability, colon PDX CO-04-0722
# Procedure: as §1, §2, §3
# EN-11-0101 = test: Cell viability, endometrial PDX EN-11-0101
# Procedure: as §1, §2
# (§6) For PDX primary cell cultures, the tumour tissue was washed with PBS containing antibiotic-antimycotic and non-tumour tissue and necrotic tumour tissues were separated. The tumour tissue was transferred to a new dish and cut into 1˜2 mm^3 fragments, resuspended in RPMI-1640 medium and centrifuged at 1,200 rpm for 6 min at room temperature. The pelleted material was resuspended with 15 mL of Tumour Cell Digestion Solution and incubated at 37° C. for 1 hour with agitation. Following further addition of media, centrifugation and passage through a 70 μm cell strainer, the homogenous cell mixture was layered onto 15 mL of Ficoll-Paque PLUS in a 50 mL conical tube and centrifuged for 15 min at 1,600 rpm. The interface cells were collected, washed with media, separated by centrifugation at 1,200 rpm. The cell pellet was resuspended in serum free media supplemented with growth factors. 10,000 cells/wells were plated in a 96 well plate and incubated at 37° C., 5% CO2, 95% air and 100% relative humidity overnight. The cytotoxicity assay was conducted as above.
# (§7) Sigmoidal concentration-response curves were fitted to the data points (test-versus-control, T/C values) obtained for each tumor model using GraphPad prism 5.02 software.
# ES-06-0002 = test: Cell viability, esophagus PDX ES-06-0002
# Procedure: as §1, §2, §3
# LU-01-0027 = test: Cell viability, lung PDX LU-01-0027
# Procedure: as §1, §2, §3
# LU-01-0604 = test: Cell viability, lung PDX LU-01-0604
# Procedure: as §1, §2, §3
# OVXF 899 = test: Cell viability assay, OVXF 899; settings: ovarian carcinoma OVXF 899
# Procedure: as §4, §5
# PC-07-0045 = test: Cell viability, pancreatic PDX PC-07-0045
# Procedure: as §1, §2, §3
# PC-3 = test: Cell viability assay, PC-3; settings: prostate carcinoma cell line PC-3
# Procedure: as §4, §5
# ONCap = test: Cell viability assay, ONCap; settings: prostate carcinoma cell line ONCap
# Procedure: as §4, §5
# 22Rv1 = test: Cell viability assay, 22Rv1; settings: prostate carcinoma cell line 22Rv1
# Procedure: as §4, §5
# ME-21-0028 = test: Cell viability, skin melanoma PDX ME-21-0028
# Procedure: as §1, §2, §6, §7
# ST-02-0007 = test: Cell viability, stomach PDX ST-02-0007
# Procedure: as §1, §2, §3
# ST-02-0173 = test: Cell viability, stomach PDX ST-02-0173
# Procedure: as §1, §2, §3
# ST-020012 = test: Cell viability, stomach PDX ST-020012
# Procedure: as §1, §2, §3
# ST-02-0322 = test: Cell viability, stomach PDX ST-02-0322
# Procedure: as §1, §2, §3
# [1] = endometrial PDX EN-11-0101, read-out: IC50
# [2] = skin melanoma PDX ME-21-0028, read-out: IC50
SMILES,IC50 (CH-17-0091) [µM],IC50 (CO-04-0722) [µM],IC50 (EN-11-0101; [1]) [µM],IC50 (ES-06-0002) [µM],IC50 (LU-01-0027) [µM],IC50 (LU-01-0604) [µM],IC50 (OVXF 899) [µM],IC50 (PC-07-0045) [µM],IC50 (ONCap) [µM],IC50 (ME-21-0028; [2]) [µM],IC50 (ST-02-0007) [µM],IC50 (ST-02-0173) [µM],IC50 (ST-020012) [µM],IC50 (ST-02-0322) [µM],other results
"O=c1cc(-c2ccc(CCC[P+](c3ccccc3)(c3ccccc3)c3ccccc3)cc2)oc2c(O)c(O)ccc12 [SND200, (3-(4-(7,8-Dihydroxy-4-oxo-4H1-chromen-2-yl)phenyl)propyl)triphenylphosphonium bromide]",9.5,9.8,10.4,11.6,1.8,7.8,6.37,2.3,0.52,10.9,9.4,15.5,8.8,8.5,IC50 (SF-268): 7.83 µM; IC50 (MCF-7): 1.68 µM; IC50 (MDA-MB-468): 0.3 µM; IC50 (HT-29): 3.31 µM; IC50 (PC-3): 0.3 µM; IC50 (22Rv1): 0.42 µM
"COc1c(O)ccc2c(=O)c(O)c(-c3ccc(CCCC[P+](c4ccccc4)(c4ccccc4)c4ccccc4)cc3)oc12 [SND190, (4-(4-(3,7-Dihydroxy-8-methoxy-4-oxo-4H1-chromen-2-yl)phenyl)butyl)triphenylphosphonium bromide]",4,4.4,7.9,4.9,4,2,8.76,3.4,1.5,2.2,5.7,11,4.5,6.3,"IC50 (SF-268; Homo sapiens): 4.1 µM; IC50 (MCF-7; Homo sapiens, MCF7): 3.91 µM; IC50 (MDA-MB-468; Homo sapiens): 0.3 µM; IC50 (HT-29; Homo sapiens): 5.78 µM; IC50 (EN-11-0101; Table 8, read-out: IC50, endometrial PDX growth): < 20 µM; IC50 (PC-3; Homo sapiens): 1.69 µM; IC50 (22Rv1; Homo sapiens): 0.79 µM; IC50 (ME-21-0028; text summary of Table 21, read-out: IC50, skin melanoma PDX growth): < 20 µM"
